This is an account of results in patent US20060281771A1, “SYNERGISTIC MODULATION OF FLT3 KINASE USING AMINOQUINOLINE AND AMINOQUINAZOLINE KINASE MODULATORS” (priority 2005, published 2006).

In the assay the target is T1, wild-type FLT3 phosphorylation in Baf3 FLT3 cells (Homo sapiens, UniProt P36888).
T1 construct: host or cells: Baf3 (murine B cell lymphoma line)
T1 sequence (P36888 27-993): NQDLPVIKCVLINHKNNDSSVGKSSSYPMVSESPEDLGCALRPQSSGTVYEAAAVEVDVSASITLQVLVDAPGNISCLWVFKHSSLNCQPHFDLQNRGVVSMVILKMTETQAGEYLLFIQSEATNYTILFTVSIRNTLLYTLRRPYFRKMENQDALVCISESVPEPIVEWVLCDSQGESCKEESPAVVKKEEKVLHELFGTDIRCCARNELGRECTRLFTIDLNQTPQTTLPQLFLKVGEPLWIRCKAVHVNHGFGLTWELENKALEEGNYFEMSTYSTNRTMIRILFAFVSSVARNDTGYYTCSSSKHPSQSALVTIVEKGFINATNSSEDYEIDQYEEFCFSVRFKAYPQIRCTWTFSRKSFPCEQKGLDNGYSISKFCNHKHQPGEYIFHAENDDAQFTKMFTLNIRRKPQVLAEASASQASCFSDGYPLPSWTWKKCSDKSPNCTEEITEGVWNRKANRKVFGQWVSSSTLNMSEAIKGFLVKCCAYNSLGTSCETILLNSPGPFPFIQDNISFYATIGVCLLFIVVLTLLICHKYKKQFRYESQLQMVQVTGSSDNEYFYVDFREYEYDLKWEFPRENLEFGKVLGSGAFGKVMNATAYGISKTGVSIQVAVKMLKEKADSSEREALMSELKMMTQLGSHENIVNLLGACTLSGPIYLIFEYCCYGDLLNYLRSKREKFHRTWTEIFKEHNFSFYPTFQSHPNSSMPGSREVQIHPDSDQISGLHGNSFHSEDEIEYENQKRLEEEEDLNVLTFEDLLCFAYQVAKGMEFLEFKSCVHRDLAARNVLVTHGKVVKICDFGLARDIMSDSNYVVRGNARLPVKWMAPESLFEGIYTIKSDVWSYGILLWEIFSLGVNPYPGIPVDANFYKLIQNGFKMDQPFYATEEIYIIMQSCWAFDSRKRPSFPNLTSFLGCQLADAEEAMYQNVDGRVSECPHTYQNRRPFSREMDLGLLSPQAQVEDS
As to the kind of experiment: Cell-based FLT3 receptor ELISA. Conditions: FLT ligand-induced FLT3 phosphorylation. On the procedure: Specific cellular inhibition of FLT ligand-induced wild-type FLT3 phosphorylation was measured in the following manner: Baf3 FLT3 cells overexpressing the FLT3 receptor were obtained from Dr. Michael Heinrich (Oregon Health and Sciences University). The Baf3 FLT3 cell lines were created by stable transfection of parental Baf3 cells (a murine B cell lymphoma line dependent on the cytokine IL-3 for growth) with wild-type FLT3. Cells were selected for their ability to grow in the absence of IL-3 and in the presence of FLT3 ligand.
Baf3 cells were maintained in RPMI 1640 with 10% FBS, penn/strep and 10 ng/ml FLT ligand at 37° C., 5% CO2. To measure direct inhibition of the wild-type FLT3 receptor activity and phosphorylation a sandwich ELISA method was developed similar to those developed for other RTKs (see Sadick, M D, Sliwkowski, M X, Nuijens, A, Bald, L, Chiang, N, Lofgren, J A, Wong W L T. Analysis of Heregulin-Induced ErbB2 Phosphorylation with a High-Throughput Kinase Receptor Activation Enzyme-Linked Immunsorbent Assay, Analytical Biochemistry. 1996; 235:207-214 and Baumann C A, Zeng L, Donatelli R R, Maroney A C. Development of a quantitative, high-throughput cell-based enzyme-linked immunosorbent assay for detection of colony-stimulating factor-1 receptor tyrosine kinase inhibitors. J Biochem Biophys Methods. 2004; 60:69-79.). 200 μL of Baf3FLT3 cells (1×10^6/mL) were plated in 96 well dishes in RPMI 1640 with 0.5% serum and 0.01 ng/mL IL-3 for 16 hours prior to 1 hour compound or DMSO vehicle incubation. Cells were treated with 100 ng/mL Flt ligand (R&D Systems Cat# 308-FK) for 10 min. at 37° C. Cells were pelleted, washed and lysed in 100 ul lysis buffer (50 mM Hepes, 150 mM NaCl, 10% Glycerol, 1% Triton-X-100, 10 mM NaF, 1 mM EDTA, 1.5 mM MgCl2, 10 mM NaPyrophosphate) supplemented with phosphatase (Sigma Cat# P2850) and protease inhibitors (Sigma Cat #P8340). Lysates were cleared by centrifugation at 1000×g for 5 minutes at 4° C. Cell lysates were transferred to white wall 96 well microtiter (Costar #9018) plates coated with 50 ng/well anti-FLT3 antibody (Santa Cruz Cat# sc-480) and blocked with SeaBlock reagent (Pierce Cat#37527). Lysates were incubated at 4° C. for 2 hours. Plates were washed 3× with 200 ul/well PBS/0.1% Triton-X-100. Plates were then incubated with 1:8000 dilution of HRP-conjugated anti-phosphotyrosine antibody (Clone 4G10, Upstate Biotechnology Cat#16-105) for 1 hour at room temperature. Plates were washed 3× with 200 ul/well PBS/0.1% Triton-X-100. Signal detection with Super Signal Pico reagent (Pierce Cat#37070) was done according to manufacturer's instruction with a Berthold microplate luminometer. All data points are an average of triplicate samples. […] Inhibition and IC50 data analysis was done with GraphPad Prism using a non-linear regression fit with a multiparamater, sigmoidal dose-response (variable slope) equation.
As usually defined, the IC50 is the concentration needed to halve the response being measured. A high value points to weaker potency. `COc1cc2ncnc(N3CCC(OC(=O)Nc4ccc(C(C)C)cc4)CC3)c2cc1OC` [Compound 1, (4-Isopropyl-phenyl)-carbamic acid 1-(6,7-dimethoxy-quinazolin-4-yl)-piperidin-4-yl ester] registered an IC50 of 16 nM.

In the case of `COc1cc2ncnc(N3CCC(OC(=O)Nc4ccc(C(C)C)cc4)C3)c2cc1OC` (stereo not shown) [Compound 2, (4-Isopropyl-phenyl)-carbamic acid 1-(6,7-dimethoxy-quinazolin-4-yl)-pyrrolidin-3-yl ester], the IC50 was 64 nM. This IC50 is about 4-fold higher than that of the molecule before.

`COc1cc2ncnc(N3CCC(OC(=O)Nc4ccc(OC(C)C)cc4)CC3)c2cc1OC` [Compound 3, (4-Isopropoxy-phenyl)-carbamic acid 1-(6,7-dimethoxy-quinazolin-4-yl)-piperidin-4-yl ester]: the IC50 is 118 nM.

Molecule `COc1cc2ncnc(N3CCCC(COC(=O)Nc4ccc(C(C)C)cc4)C3)c2cc1OC` (stereo not shown) [Compound 4] gave a half-maximal inhibitory concentration (IC50) of 6 nM.

With `COc1cc2ncnc(N3CCC(CC(=O)Nc4ccc(C(C)C)cc4)CC3)c2cc1OC` [Compound 5, 2-[1-(6,7-Dimethoxy-quinazolin-4-yl)-piperidin-4-yl]-N-(4-isopropyl-phenyl)-acetamide], 6 nM corresponded to half-maximal inhibition (IC50).

Regarding `COc1cc2ncnc(N3CCC(CC(=O)Nc4ccc(C(C)C)cc4)C3)c2cc1OC` (stereo not shown) [Compound 6, 2-[11-(6,7-Dimethoxy-quinazolin-4-yl)-pyrrolidin-3-yl]-N-(4-isopropyl-phenyl)-acetamide], half-maximal inhibition (IC50) required 46 nM. Compared with the last molecule, the IC50 is about 7.7-fold higher.

For the molecule `COc1cc2ncnc(N3CCC(NC(=O)Nc4ccc(C(C)C)cc4)C3)c2cc1OC` (stereo not shown) [Compound 7, 1-[1-(6,7-Dimethoxy-quinazolin-4-yl)-pyrrolidin-3-yl]-3-(4-isopropyl-phenyl)-urea], the midpoint of inhibition, the IC50, lay at 140 nM.

Turning to `COc1cc2ncnc(N3CCC(NC(=O)Nc4ccc(OC(C)C)cc4)C3)c2cc1OC` (stereo not shown) [Compound 8, 1-[1-(6,7-Dimethoxy-quinazolin-4-yl)-pyrrolidin-3-yl]-3-(4-isopropoxy-phenyl)-urea], the IC50 was found to be 360 nM.

`COc1cc2ncnc(N3CCCC3COC(=O)Nc3ccc(C(C)C)cc3)c2cc1OC` (stereo not shown) [Compound 9] had a half-maximal inhibitory concentration (IC50) of 27 nM. Against the preceding molecule, the IC50 is about 13-fold lower.

Regarding `COc1cc2ncnc(N3CCC(OC(=O)Nc4ccc(OC5CCC5)nc4)C3)c2cc1OC` (stereo not shown) [Compound 12, (6-Cyclobutoxy-pyridin-3-yl)-carbamic acid 1-(6,7-dimethoxy-quinazolin-4-yl)-pyrrolidin-3-yl ester], the midpoint of inhibition, the IC50, lay at 11 nM.

Molecule `COc1cc2ncnc(N3CCC(C(=O)Nc4ccc(C(C)C)cc4)CC3)c2cc1OC` [Compound 13, 1-(6,7-Dimethoxy-quinazolin-4-yl)-piperidine-4-carboxylic acid (4-isopropyl-phenyl)-amide] returned an IC50 of 89 nM. Compared with the last molecule, the IC50 is about 8.1-fold higher.

`CC(C)c1ccc(NC(=O)OC2CCN(c3ncnc4ccc(C#CCO)cc34)C2)cc1` (stereo not shown) [Compound 14, (4-Isopropyl-phenyl)-carbamic acid 1-[6-(3-hydroxy-prop-1-ynyl)-quinazolin-4-yl]-pyrrolidin-3-yl ester] registered an IC50 of 4 nM.

Turning to `COc1cc2ncnc(N3CCC(OC(=O)Nc4ccc(OC(C)C)cc4)C3)c2cc1OC` (stereo not shown) [Compound 15, (4-Isopropoxy-phenyl)-carbamic acid 1-(6,7-dimethoxy-quinazolin-4-yl)-pyrrolidin-3-yl ester], it took 320 nM to reach half-maximal inhibition (IC50). Compared with the last molecule, the IC50 is about 80-fold higher.

The molecule `CC(C)c1ccc(NC(=O)NC2CCN(c3ncnc4ccccc34)C2)cc1` (stereo not shown) [Compound 16, 1-(4-Isopropyl-phenyl)-3-(1-quinazolin-4-yl-pyrrolidin-3-yl)urea] had an IC50 of 242 nM.

Molecule `CCN(CC)CC#Cc1ccc2ncnc(N3CCC(OC(=O)Nc4ccc(C(C)C)cc4)C3)c2c1` (stereo not shown) [Compound 17, (4-Isopropyl-phenyl)-3-carbamic acid 1-[6-(3-diethylamino-prop-1-ynyl)-quinazolin-4-yl]-pyrrolidin-3-yl ester] had an IC50 of 163 nM.

`COc1cc2ncnc(N3CCC(CNC(=O)Nc4ccc(C(C)C)cc4)CC3)c2cc1OC` [Compound 18, 1-[1-(6,7-Dimethoxy-quinazolin-4-yl)-piperidin-4-ylmethyl]-3-(4-isopropyl-phenyl)-urea] registered an IC50 of 49 nM.
